Test results: US20250206734A1, “BICYCLIC HETEROCYCLES AS MRGPRX2 ANTAGONISTS” (Incyte Corporation, priority 2023, published 2025)

Legend:
Assay type in all cases: cell-based
MRGPRX2 [1] = molecular target: T1, MRGPRX2 (Homo sapiens, UniProt Q96LB1); assay: MRGPRX2 β-Arrestin Assay; set-up: host or cells: PathHunter CHO-K1; settings: PathHunter CHO-K1 MRGPRX2 β-Arrestin cell line; agonist Cortistatin 14 0.25 μM
T1 sequence (Q96LB1 1-330): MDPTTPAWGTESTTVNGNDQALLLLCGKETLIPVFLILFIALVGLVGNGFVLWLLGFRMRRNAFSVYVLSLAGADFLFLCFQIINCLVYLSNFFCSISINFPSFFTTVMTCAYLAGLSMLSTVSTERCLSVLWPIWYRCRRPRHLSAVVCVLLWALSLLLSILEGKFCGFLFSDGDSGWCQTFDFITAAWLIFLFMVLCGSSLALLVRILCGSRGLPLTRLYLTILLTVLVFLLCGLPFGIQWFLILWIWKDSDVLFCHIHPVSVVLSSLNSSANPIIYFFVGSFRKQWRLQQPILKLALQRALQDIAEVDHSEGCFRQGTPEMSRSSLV
Description: Example C: MRGPRX2 β-Arrestin Assay
This assay measures compound inhibition of β-Arrestin recruitment, which is part of the G protein-independent pathway that results from the ligand-activated GPCR phosphorylation by specific GPCR kinases. The PathHunter CHO-K1 MRPGRX2 B-Arrestin Cell line stably expressing ProLink tagged MRGPRX2 and Enzyme Acceptor Tagged B-Arrestin was purchased from Eurofins DiscoverX, (Fremont, CA).
The cells were maintained in culture medium from the Europhins DiscoverX Cell Culture Kit-107 which includes FBS, hygromycin B and G418. For the assay, the cells were harvested and were resuspended with Cell Plating Reagent 2 (Eurofins DiscoverX). Cells were added 10000 cells in 25 μL/well to a 384-well black cell culture plate (Greiner VWR, Radnor, PA) which contained 125 nL/well of compound at a selected serially diluted concentration range or DMSO. The plate was incubated at 37° C. with 5% CO2 for 1 h. 2 μL/well of agonist Cortistatin 14 was diluted in Protein Dilution Buffer, (Eurofins DiscoverX) for a final concentration of 0.25 μM, was added and the plate was incubated at 37° C. with 5% CO2 for 90 min. 14 μL/well of Detection Reagent Mix (PathHunter Detection Kit, Eurofins DiscoverX) was added to the plates and further incubated for 1 h in the dark. Plates were read on the PHERAstar microplate reader (BMG Labtech Cary, NC) measuring luminescence 0.1 to 1 s per well. Data was normalized using DMSO only wells and wells with high concentration of reference antagonist as controls. Compound IC50 curves were globally fitted with 3- or 4-parameter Hill equation in a Genedata Screener (Genedata Basel, Switzerland).

MRGPRX2 [2] = molecular target: T1, MRGPRX2; assay: MRGPRX2 FLIPR Calcium Mobilization Assay; set-up: host or cells: CHO-K1; settings: CHO-K1 cells stably expressing human MRGPRX2; Ca2+ release; agonist Cortistatin-14 at EC80
Method: Example A. MRGPRX2 FLIPR Calcium Mobilization Assay
Chinese hamster ovary (CHO-K1) cells stably expressing human MRGPRX2 were purchased from Genescript (Piscataway, NJ). The cells were maintained in culture medium (Ham's F-12K) containing 10% (v/v) FBS, 200 μg/mL Zeocin, 100 units/mL penicillin G and 100 μg/mL streptomycin (Life Technologies, Carlsbad, CA). For the assay, the cells were harvested and resuspended with culture medium without Zeocin before plating at 8000 cells per well in 20 μL in 384-well black clear bottom cell culture plates (VWR, Radnor, PA). After 24 hour culture at 37° C. and 5% CO2, the cells were loaded with 20 μL/well of calcium dye (FLIPR Calcium 6 Assay Kit, Molecular Devices, San Jose, CA) diluted in loading buffer (1× Hank's Balanced Salt Solution (HBSS), 5 mM probenecid, 20 mM 4-(2-hydroxyethyl)-1-piperazineethanesulfonic acid (HEPES), pH 7.4, VWR, Radnor, PA) followed with 45 min incubation at 37° C. and 40 min. at r.t. in the dark. Cells were then treated with the addition of 10 uL/well test compounds with a range of increasing concentrations diluted in the assay buffer (1×HBSS, 20 mM HEPES, pH 7.4, VWR, Radnor, PA) with FLIPR Penta (Molecular Devices. San Jose, CA) and incubated for 30 min. at r.t. Ca^2+ release was measured with FLIPR Penta with 10 s basal fluorescence measurement, then 12.5 μL of 5× agonist Cortistatin-14 (Tocris, Minneapolis, MN) at final concentration corresponding to the EC80 were added followed with continued fluorescence signal monitoring for an additional 110 s. The base line adjusted (median of first 10s base line) max value of the Relative Fluorescence Unit (RFU) was plotted against compound concentrations. Wells with no compound were served as the positive controls, and wells with high concentration of reference antagonist were used as negative controls. IC50 curves were globally fitted with 3- or 4-parameter Hill equation in a Genedata Screener (Genedata Basel, Switzerland).

MRGPRX2 [3] = molecular target: T1, MRGPRX2; assay: MRGPRX2 IP1 HTRF Assay; set-up: host or cells: CHO-K1; settings: CHO-K1 cells stably expressing human MRGPRX2; IP1 accumulation; agonist Cortistatin 14 1 μM
Description: Example B: MRGPRX2 IP1 HTRF Assay
This assay measures compound inhibition of myo-Inositol 1 phosphate (IP1) accumulation in CHO-K1 cells. Chinese hamster ovary (CHO-K1) cells stably expressing human MRGPRX2 were purchased from GenScript (Piscataway, NJ).
For the HTRF IP1 determination, an IP-One GqKit (Perkin Elmer Cisbio, Waltham, MA), which includes all reagents and buffers in this protocol, was used. The cells were maintained in culture medium (Ham's F-12K) containing 10% (v/v) FBS, and 200 μg/mL Zeocin. For the assay, the cells were harvested and resuspended in culture medium with 2% FBS and without Zeocin, then were passed through a 40 μm filter. Cells were added at 20000 cells in a 5 μL/well to a 384-well white small volume cell culture plate (Greiner VWR, Radnor, PA) which contained 50 nL/well of test compound serially diluted at a selected concentration range in DMSO. 5 μL/well of prepared 2× Stimulation Buffer2 was then added to plates and was incubated at 37° C. with 5% CO2 for 1 h. 5 μL/well of agonist Cortistatin 14 (Bio-TechneR&D Systems, Minneapolis, MN) in 1× Stimulation Buffer 2, for a 1 μM final concentration, was then added to plates and incubated at 37° C. with 5% CO2 for 1 h. 6 μL/well of 1:20 diluted Detection Reagent Mix (d2 and Cryptate) was added to the plates and incubated for 1 h in the dark. Plates were read on the PHERAstar microplate reader (BMG Labtech Cary, NC) to determine the HTRF ratio of the acceptor and donor emission signals. The IP1 concentrations were calculated from a standard curve following the IP-One GQ kit instructions. Wells with DMSO only and wells with high concentration of reference antagonist were used as controls for normalization. Compound IC50 curves were globally fitted with 3- or 4-parameter Hill equation in a Genedata Screener (Genedata Basel, Switzerland).

IC50 (MRGPRX2 [1])	IC50 (MRGPRX2 [2])	IC50 (MRGPRX2 [3])	Structure (SMILES)
0.1 to 100 nM	0.1 to 100 nM	0.1 to 100 nM	CC(c1cc2ncc(Oc3ccc(F)cc3F)cc2cn1)N1CCCC1c1ccccc1 (stereo not drawn) [Example 3, 3-(2,4-Difluorophenoxy)-7-(1-(2-phenylpyrrolidin-1-yl)ethyl)-1,6-naphthyridine]
0.1 to 100 nM	0.1 to 100 nM	0.1 to 100 nM	CC(c1cc2ncc(Oc3ccc(F)cc3F)cc2cn1)N1CCC(F)(F)C(c2ccc(=O)[nH]c2)C1 (stereo not drawn) [Example 4, 5-(1-(1-(3-(2,4-Difluorophenoxy)-1,6-naphthyridin-7-yl)ethyl)-4,4-difluoropiperidin-3-yl)pyridin-2(1H)-one]
0.1 to 100 nM	0.1 to 100 nM	100 to 1000 nM	Fc1ccc(Oc2cnc3cc(C(N4CCCCC4)C(F)(F)F)ncc3c2)c(F)c1 (stereo not drawn) [Example 5, 3-(2,4-Difluorophenoxy)-7-(2,2,2-trifluoro-1-(piperidin-1-yl)ethyl)-1,6-naphthyridine]
0.1 to 100 nM	0.1 to 100 nM	0.1 to 100 nM	Fc1ccc(Oc2cnc3cc(C(N4CCC(F)(F)CC4)C(F)(F)F)ncc3c2)c(F)c1 (stereo not drawn) [Example 6, 3-(2,4-Difluorophenoxy)-7-(1-(4,4-difluoropiperidin-1-yl)-2,2,2-trifluoroethyl)-1,6-naphthyridine]
0.1 to 100 nM	0.1 to 100 nM	0.1 to 100 nM	Fc1ccc(Oc2cnc3cc(C(N4CCCC4c4ccccc4)C(F)(F)F)ncc3c2)c(F)c1 (stereo not drawn) [Example 7, 3-(2,4-Difluorophenoxy)-7-(2,2,2-trifluoro-1-(2-phenylpyrrolidin-1-yl)ethyl)-1,6-naphthyridine]
0.1 to 100 nM	0.1 to 100 nM	0.1 to 100 nM	Fc1ccc(Oc2cnc3cc(C(N4CCCC4c4ccncc4)C(F)(F)F)ncc3c2)c(F)c1 (stereo not drawn) [Example 12, 3-(2,4-Difluorophenoxy)-7-(2,2,2-trifluoro-1-(2-(pyridin-4-yl)pyrrolidin-1-yl)ethyl)-1,6-naphthyridine]
0.1 to 100 nM	0.1 to 100 nM	0.1 to 100 nM	NC(=O)[C@@H]1CCCN1C(c1cc2ncc(Oc3ccc(F)cc3F)cc2cn1)C(F)(F)F (stereo partly drawn) [Example 14, (2S)-1-(1-(3-(2,4-Difluorophenoxy)-1,6-naphthyridin-7-yl)-2,2,2-trifluoroethyl)pyrrolidine-2-carboxamide]
0.1 to 100 nM	0.1 to 100 nM	0.1 to 100 nM	COc1ccc(C2CCCN2C(c2cc3ncc(Oc4ccc(F)cc4F)cc3cn2)C(F)(F)F)cc1 (stereo not drawn) [Example 15, 3-(2,4-Difluorophenoxy)-7-(2,2,2-trifluoro-1-(2-(4-methoxyphenyl)pyrrolidin-1-yl)ethyl)-1,6-naphthyridine]
0.1 to 100 nM	0.1 to 100 nM	0.1 to 100 nM	O=c1ccc(C2CCCN(C(c3cc4ncc(Oc5ccc(F)cc5F)cc4cn3)C(F)(F)F)C2)cn1CC(F)(F)F (stereo not drawn) [Example 16, 5-(1-(1-(3-(2,4-Difluorophenoxy)-1,6-naphthyridin-7-yl)-2,2,2-trifluoroethyl)piperidin-3-yl)-1-(2,2,2-trifluoroethyl)pyridin-2(1H)-one]
